These results are taken from patent US20080241904A1, “PROCESS FOR PRODUCING ISOMALTOSE AND USES THEREOF” (KABUSHIKI KAISHA HAYASHIBARA SEIBUTSU KAGAKU KENKYUJO, priority 2001, published 2008).

Structures are written as SMILES.

Experiment [1] concerns α-isomaltosylglucosaccharide-forming enzyme. As to the kind of experiment: Influence of metal ions on activity of α-isomaltosylglucosaccharide-forming enzyme (Strain C9). The format is biochemical, Bacillus globisporus C9. Conditions: for Effect on enzyme activity (in words): 1 mM, summary of Table 2; for Relative activity: in the presence of 1 mM of each metal ion, None = 100. The method, then: The activities of these enzymes were assayed as follows: The α-isomaltosylglucosaccharide-forming enzyme of the present invention was assayed for enzymatic activity by dissolving maltotriose in 100 mM acetate buffer (pH 6.0) to give a concentration of 2% (w/v) for a substrate solution, adding a 0.5 ml of an enzyme solution to a 0.5 ml of the substrate solution, enzymatically reacting the mixture solution at 35° C. for 60 min, suspending the reaction mixture by heating at 100° C. for 10 min, and quantifying maltose, among the isomaltosyl maltose and maltose formed in the reaction mixture, by high-performance liquid chromatography (abbreviated as “HPLC” hereinafter). HPLC was carried out using “YMC PACK ODS-AQ303 column” commercialized by YMC Co., Ltd., Tokyo, Japan, at a column temperature of 40° C. and a flow rate of 0.5 ml/min of water; and using “RI-8012”, a differential refractometer commercialized by Tosoh Corporation, Tokyo, Japan. One unit activity of the α-isomaltosylglucosaccharide-forming enzyme is defined as the enzyme amount that forms one micromole of maltose per minute under the above enzymatic reaction conditions.
The influence of metal ions on the activity of α-isomaltosylglucosaccharide-forming enzyme was examined in the presence of 1 mM of each metal-ion according to the assay for the enzyme activity.

For experiment [2] the test system is unchanged. Kind of experiment: Influence of metal ions on enzyme activity, Experiment 4-2 (Strain C11). The format is biochemical, Bacillus globisporus C11. Particulars: for Effect on enzyme activity (in words): 1 mM, summary of Table 6; for Relative activity: in the presence of 1 mM of each metal ion, None = 100.
Experiment [3] has as its system α-isomaltosyl-transferring enzyme. Kind of experiment: Influence of metal ions on activity of α-isomaltosyl-transferring enzyme (Strain C11). The format is biochemical, Bacillus globisporus C11. Conditions: for Effect on enzyme activity (in words): 1 mM, summary of Table 8; for Relative activity: in the presence of 1 mM of each metal ion, None = 100. The method, then:
(§1) The α-isomaltosyl-transferring enzyme was assayed for enzymatic activity by dissolving panose in 100 mM acetate buffer (pH 6.0) to give a concentration of 2% (w/v) for a substrate solution, adding a 0.5 ml of an enzyme solution to 0.5 ml of the substrate solution, enzymatically reacting the mixture solution at 35° C. for 30 min, suspending the reaction mixture by boiling for 10 min, and quantifying glucose, among the cyclotetrasaccharide and glucose formed in the reaction mixture, by the glucose oxidase method. One unit activity of the α-isomaltosyl-transferring enzyme is defined as the enzyme amount that forms one micromole of glucose per minute under the above enzymatic reaction conditions.
(§2) The influence of metal ions on the activity of α-isomaltosyl-transferring enzyme was examined in the presence of 1 mM of each metal-ion according to the assay for the enzyme activity.

The test system is the same in experiment [4]. Kind of experiment: Influence of metal ions on activity of α-isomaltosyl-transferring enzyme (Strain C9). The format is biochemical, Bacillus globisporus C9. Particulars: for Effect on enzyme activity (in words): 1 mM, summary of Table 4; for Relative activity: in the presence of 1 mM of each metal ion, None = 100. As to the method: as §1, §2

As for `[Ca+2]` [Ca^2+], the “Effect on enzyme activity (in words)” value in experiment [1] was “activated”; in experiment [2] it was “activated”; in experiment [3], “not activated”; in experiment [4] it was “not activated”. Further, the Relative activity in experiment [1] is on record as 115%; in experiment [2] it was 109%; in experiment [3], 91%; in experiment [4], 101%.

As for `[Co+2]` [Co^2+], the Relative activity in experiment [1] is on record as 100%; in experiment [2], 96%; in experiment [3], 89%; in experiment [4], 103%.

With `[Cu+2]` [Cu^2+], the “Effect on enzyme activity (in words)” value in experiment [1] is given as “greatly inhibited”; in experiment [2] it was “greatly inhibited”; in experiment [3] it was “inhibited”; in experiment [4], “inhibited”. The Relative activity in experiment [1] was found to be 15%; in experiment [2] it was 23%; in experiment [3], 56%; in experiment [4], 57%.

For `O=C(O)CN(CCN(CC(=O)O)CC(=O)O)CC(=O)O` [EDTA], the “Effect on enzyme activity (in words)” value is on record as “greatly inhibited” in experiment [1], “greatly inhibited” in experiment [2], “not inhibited” in experiment [3] and “not inhibited” in experiment [4]. Further, the Relative activity in experiment [1] came to 20%; in experiment [2], 24%; in experiment [3], 98%; in experiment [4] it was 104%.

Turning to `[Hg+2]` [Hg^2+], the “Effect on enzyme activity (in words)” value in experiment [1], in experiment [2], in experiment [3] and in experiment [4] was “greatly inhibited” each time. For the same compound, the Relative activity in experiment [1] turned out to be 4%; in experiment [2], 4%; in experiment [3] it was 2%; in experiment [4] it was 1%.

For `[Mn+2]` [Mn^2+], the “Effect on enzyme activity (in words)” value in experiment [1] and in experiment [2] was “activated” in each case. The Relative activity in experiment [1] turned out to be 111%; in experiment [2], 142%; in experiment [3], 93%; in experiment [4], 106%.

In the case of `[Pb+2]` [Pb^2+], the Relative activity was 103% in experiment [1], 101% in experiment [2], 74% in experiment [3] and 89% in experiment [4].

Regarding `[Sr+2]` [Sr^2+], the “Effect on enzyme activity (in words)” value in experiment [1] and in experiment [2] was “inhibited” each time. The Relative activity is 80% in experiment [1], 83% in experiment [2], 93% in experiment [3] and 101% in experiment [4].

As for `[Zn+2]` [Zn^2+], the Relative activity came out at 92% in experiment [1], 91% in experiment [2], 83% in experiment [3] and 88% in experiment [4].
